Reference: patent publication US20120164242A1, “NOVEL METHODS FOR MODULATING MELANIN PRODUCTION” (priority 2010, published 2012)

Tested on: melanogenesis related genes
Experiment: RT-PCR mRNA level of melanogenesis related genes in B16-F10 cells
Format: cell-based, mouse
Details: 100 μM, three days
Procedure: To determine whether THSG had similar effects as the PMT extract on the induction of melanin related gene expression, B16-F10 cells were cultured in medium containing PMT extract (10 μg/mL), THSG (10 μg/mL), naringenin (100 μM) for three days and RT-PCR was performed to analyze melanin biosynthesis related gene expression using the protocol as described in Example 4 above.

SMILES: O=C1C[C@@H](c2ccc(O)cc2)Oc2cc(O)cc(O)c21 [naringenin]
- mRNA level of melanogenesis related genes: no increase
